Assay results as given in PubChem BioAssay (NCI).
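Cells were grown in 96-well plates and exposed to each compound for 48 hours at five concentrations; endpoints were interpolated linearly between bracketing concentrations, or set to the highest concentration if not reached. TGI is the concentration that stops growth completely.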

Key:
Assay in all cases: growth of human tumour cells (NCI), 48 h
SK-MEL-28 melanoma = tested on: SK-MEL-28 melanoma
UACC-257 melanoma = tested on: UACC-257 melanoma
786-0 renal = tested on: 786-0 renal
SK-MEL-5 melanoma = tested on: SK-MEL-5 melanoma
HCC-2998 colon = tested on: HCC-2998 colon
A498 renal = tested on: A498 renal
NCI-H23 lung = tested on: NCI-H23 lung
HOP-92 NSCLC = tested on: HOP-92 NSCLC
HS 578T breast = tested on: HS 578T breast
HOP-62 NSCLC = tested on: HOP-62 NSCLC
SNB-19 CNS = tested on: SNB-19 CNS
OVCAR-8 ovarian = tested on: OVCAR-8 ovarian
EKVX NSCLC = tested on: EKVX NSCLC
UACC-62 melanoma = tested on: UACC-62 melanoma
OVCAR-3 ovarian = tested on: OVCAR-3 ovarian
U251 CNS = tested on: U251 CNS
NCI-H460 lung = tested on: NCI-H460 lung
LOX IMVI melanoma = tested on: LOX IMVI melanoma
PC-3 prostate = tested on: PC-3 prostate
MCF7 breast = tested on: MCF7 breast
A549 NSCLC = tested on: A549 NSCLC
SF-295 CNS = tested on: SF-295 CNS
CCRF-CEM leukemia = tested on: CCRF-CEM leukemia
HCT-116 colon = tested on: HCT-116 colon
OVCAR-4 ovarian = tested on: OVCAR-4 ovarian
T-47D breast = tested on: T-47D breast
HT29 colon = tested on: HT29 colon
DU-145 prostate = tested on: DU-145 prostate
TK-10 renal = tested on: TK-10 renal
KM12 colon = tested on: KM12 colon
CAKI-1 renal = tested on: CAKI-1 renal
SF-268 CNS = tested on: SF-268 CNS
COLO 205 colon = tested on: COLO 205 colon
MDA-MB-435 = tested on: MDA-MB-435
ACHN renal = tested on: ACHN renal
SR leukemia = tested on: SR leukemia
OVCAR-5 ovarian = tested on: OVCAR-5 ovarian
UO-31 renal = tested on: UO-31 renal
SK-OV-3 ovarian = tested on: SK-OV-3 ovarian
MDA-MB-231 breast = tested on: MDA-MB-231 breast
BT-549 breast = tested on: BT-549 breast
NCI/ADR-RES ovarian = tested on: NCI/ADR-RES ovarian
SF-539 CNS = tested on: SF-539 CNS
HL-60(TB) leukemia = tested on: HL-60(TB) leukemia
MOLT-4 leukemia = tested on: MOLT-4 leukemia
NCI-H522 lung = tested on: NCI-H522 lung
RPMI-8226 leukemia = tested on: RPMI-8226 leukemia
SN12C renal = tested on: SN12C renal
K-562 leukemia = tested on: K-562 leukemia
MDA-N = tested on: MDA-N
IGROV1 ovarian = tested on: IGROV1 ovarian
HCT-15 colon = tested on: HCT-15 colon
SW-620 colon = tested on: SW-620 colon
SK-MEL-2 melanoma = tested on: SK-MEL-2 melanoma
RXF 393 renal = tested on: RXF 393 renal
MALME-3M melanoma = tested on: MALME-3M melanoma
NCI-H226 lung = tested on: NCI-H226 lung
SNB-75 CNS = tested on: SNB-75 CNS
M14 melanoma = tested on: M14 melanoma

Measured: TGI

CCCCCCC(CCl)c1sc(-c2csc(CCNC(=O)OC(C)(C)C)n2)nc1C(=O)OC (stereo unspecified)
46.8 µM: NCI-H460 lung
29.5 µM: MCF7 breast
86.8 µM: OVCAR-3 ovarian
58.3 µM: BT-549 breast
62.6 µM: HCC-2998 colon
13 µM: T-47D breast
24.2 µM: MOLT-4 leukemia
88.2 µM: SK-OV-3 ovarian
80.5 µM: KM12 colon
78 µM: OVCAR-4 ovarian
63.8 µM: PC-3 prostate
31.6 µM: HCT-116 colon
25.9 µM: LOX IMVI melanoma
73.5 µM: HCT-15 colon
81.6 µM: ACHN renal
14.8 µM: NCI/ADR-RES ovarian
87.9 µM: MDA-N
67.6 µM: UACC-257 melanoma
67.8 µM: UO-31 renal
38.9 µM: UACC-62 melanoma | SN12C renal
52.4 µM: SF-268 CNS
51.2 µM: HT29 colon
16.1 µM: SK-MEL-5 melanoma
44.4 µM: SF-539 CNS
29.6 µM: SK-MEL-2 melanoma
69.7 µM: HOP-92 NSCLC
65.9 µM: HS 578T breast
75.9 µM: 786-0 renal
30.4 µM: MDA-MB-435
38 µM: U251 CNS
not listed: RXF 393 renal | MALME-3M melanoma | NCI-H226 lung | SNB-75 CNS | M14 melanoma
> 100 µM: all other assays above

CC(NC(=O)C(C)C(=O)NCc1ccc(C(F)(F)F)cc1)C(N)=O (stereo unspecified)
not listed: SK-MEL-28 melanoma | HCC-2998 colon | A498 renal | HOP-62 NSCLC | OVCAR-3 ovarian | LOX IMVI melanoma | OVCAR-4 ovarian | TK-10 renal
> 100 µM: all other assays above

COc1ccc(S(=O)(=O)O)cc1NS(=O)(=O)c1ccc(C)cc1
not listed: HCC-2998 colon | HOP-92 NSCLC | RXF 393 renal | MALME-3M melanoma
> 100 µM: all other assays above

Cc1ccc(O)c(Cc2nc3ccccc3nc2-c2cccc(Br)c2)c1
69.7 µM: SNB-19 CNS
66.9 µM: HCT-15 colon
84.7 µM: MOLT-4 leukemia
66.8 µM: HS 578T breast
not listed: SK-MEL-28 melanoma | HCC-2998 colon | A498 renal
> 100 µM: all other assays above
